Test results as given in US20240050406A1, “COMPOSITION COMPRISING OXIRACETAM FOR PREVENTING OR TREATING MUSCULAR DISEASE” (KSB TUGEN INC., priority 2021, published 2024).

How the values were obtained:
[1] = tested on: model of sarcopenia caused by aging; assay: Aging animal model, 22-month-old mice (Experimental Example 2); format: in vivo, C57BL/6J mice
Text: For an experimental group in the present invention, oxiracetam having a structure of Formula 1 was purchased from Tokyo Chemical Industry (Japan; Product No. 00398, CAS RN:62613-82-5, purity: 96%) and used.
As a model of sarcopenia caused by aging, 22-month-old male C57BL/6J mice were used. Until the day of the experiment, general feed (EEGJ30060: Cargill Agri Purina, Seongnam, Korea) and water were sufficiently supplied to the experimental animals, and the animals were acclimated for 1 week under an environment of a temperature of 23±2° C., a humidity of 55±10%, and a light-dark cycle of 12 hours-12 hours and used in the experiment.
The animals were randomly divided into groups of 10 animals, such as a control (vehicle, n=10), and 30, 100, and 300 mg/kg/day oxiracetam-administered groups (n=10 per concentration). To the oxiracetam-administered group, oxiracetam was orally administered using a Zonde needle for 90 days once a day at a dose of 30, 100, or 300 mg/kg/day. During the same period, no drug was administered to the control group, and 100 μL of normal saline was orally administered at a time.
To measure grip strength, a grip strength test was performed. The maximum force presented when the forelimbs of an animal model of each group could no longer hold the rod by pulling the tail horizontally while holding the tail of the animal model and holding the rod of a device with both front paws was considered to be grip strength (N). The grip strength was measured once every 3 days, and after repeating five measurements at one time, the average value was shown. Grip strength adaptation training was performed at least three times before drug administration.
The lean body mass of the gastrocnemius muscle (GS) and the lean body mass of the tibialis anterior (TA) for each group was measured every 7 days. Specifically, animal models of each group were anesthetized using 3% isoflurane, fixed to a photographing bed and then photographed. During photographing, the respiratory rates and body temperatures of the animal models were measured with an animal monitoring system (SA Instruments, USA).
The whole body of the animal model was photographed through dual energy X-ray absorptiometry (DEXA) using iNSiGHT VET DXA (Osteosys, KR), and the lean body mass of each of the gastrocnemius muscle (GS) and the tibialis anterior (TA) was measured and calculated from the two-dimensional images of the gastrocnemius muscle (GS) and the tibialis anterior (TA) by a program using the region of interest (ROI).
At 90 days after the start of the experiment, an exercise stress test was performed. First, the experimental animals in each group were acclimatized to a treadmill machine twice before measurement (1st round: inclination 10°, 10 minutes at 5 m/min and 10 minutes at 10 m/min; 2nd round: inclination 10°, 5 minutes at 5 m/min and 15 munutes at 10 m/min). On the day of the experiment, the experimental animals were allowed to run for 20 minutes at an initial speed of 10 m/min at an inclination of 10°, and then the speed was increased by 2 m/min every 2 minutes, and then the running distance and time were measured with the end point when the experimental animal stayed for 10 seconds without running.
(§1) Statistical processing was performed using GraphPad Prism (GraphPad Software Inc., San Diego, CA, USA). The results of each repeated experiment were expressed as mean±standard error of mean, and analyzed using the analysis of variance (Tukey's test), and statistical significance was acknowledged when the P-value was 0.05 or less.

[2] = tested on: C2C12 myotubes; assay: Myotube diameter in doxorubicin-induced cachexia cell model (Experimental Example 8); format: cell-based, mouse; conditions: doxorubicin 500 nM 48 h with or without oxiracetam 0.01, 0.1, 1, 10 and 30 μM; relative to control
Method: A mouse-derived C2C12 cell line was provided from the American Type Culture Collection (ATCC, CRL-1772; Manassas, VA, USA) and cultured at 37° C. in 5% CO2. In the proliferation phase of the cells before differentiation, high concentration glucose Dulbecco's modified Eagle's medium (DMEM) containing 1% penicillin/streptomycin and 10% fetal bovine serum (FBS) medium were used, and in the differentiation induction, the FBS medium was replaced with a 2% horse serum (HS)-containing medium. The C2C12 myoblasts were seeded into a 96 well culture plate and a 6 well culture plate at 2×10^5/well and 5×10^3/well, respectively, and cultured at 37° C. in a CO2 incubator. […]
Two days after anticancer agent and oxiracetam treatment, the anticancer agent-treated group (Doxorubicin), the oxiracetam-treated groups (Oxiracetam 0.01 μM, 0.1 μM, 1 μM, 10 μM and 30 μM), and the control (control) were photographed using an optical microscope at a room temperature, and the diameter (Diameter, %) of a myotube in each group was measured and compared.
as §1

[3] = Oxi 30, Oxi 100, Oxi 300 mg/kg/day oral, DEXA every 7 days, compared to control

Structure (SMILES): NC(=O)CN1CC(O)CC1=O (racemic) [oxiracetam, (RS)-2-(4-hydroxy-2-oxopyrrolidin-1-yl)acetamide]
- lean body mass of the gastrocnemius muscle (GS) [1, 3]: increased rather than decreased
- lean body mass of the tibialis anterior (TA) [1, 3]: increased rather than decreased
- physical performance capacity (athletic ability), treadmill running distance and time ([1]; Oxi 30, Oxi 100, Oxi 300, day 90, compared to control): increased rather than decreased
- physical performance capacity (athletic ability), treadmill running distance and time ([1]; Oxi 300 group (300 mg/kg/day), day 90): significantly increased
- lean body mass of the gastrocnemius muscle (GS) ([1]; Oxi 300 group (300 mg/kg/day), from week 7): significantly increased
- change in grip strength ([1]; oxiracetam 30, 100 and 300 mg/kg/day oral 90 days, versus control (vehicle)): suppressed and rather increased
- diameter of myotube [2]: significantly recovered and greatly increased to the control (normal group) level
